Measured values published in patent US20230276804A1, “A PESTICIDALLY ACTIVE MIXTURE COMPRISING PYRAZOLOPYRIDINE ANTHRANILAMIDE COMPOUND, OXIDES OR SALTS THEREOF” (priority 2020, published 2023).

Columns and labels:
Type in all cases: in vivo
Plutella xylostella = assay: Leaf dip method (cabbage leaves) against Plutella xylostella (Example C); settings: single compound, 72 h
Procedure: The leaf dip method was used, wherein the required quantity of the compound or respective compound combinations were weighed and dissolved in a test solution prepared in tubes. The tubes were put on a vortex at 2000 rpm for 90 min for proper mixing and then the test solutions were diluted with 0.01% Triton-X to the desired test concentration. Cabbage leaves were dipped into the solution for 10 seconds, shade dried for 20 min and then transferred to single cells of bioassay trays. A single second instar larva was released into each cell and the tray was covered with a lid. The bio-assay trays were kept under laboratory conditions at a temperature of 25° C. and relative humidity of 70%. Observations on dead, moribund and live larvae were recorded 72 h after the release. Percent mortality was calculated by combining dead and moribund larvae and comparing the result with the one of the untreated control. The results are shown for compound of formula (I-III) in Table C.

Helicoverpa armigera = assay: Diet incorporation method against Helicoverpa armigera (Example A); settings: single compound, 96 h
Procedure: The diet incorporation method was used, in which semi-synthetic diet was incorporated into the test solutions consisting either of the single compounds or respective compound combinations, when the temperature was approximately 50° C. in the bio-assay containers, then stirred thoroughly for proper mixing and allowed to cool for 30 min. The solidified diet was cut into equal pieces, and then each piece was transferred into one cell of a bio-assay tray. A single starved third instar larva was released into each of these cells of the bio-assay trays and the tray was covered with a lid. The bio-assay trays were kept under laboratory conditions at a temperature of 25° C. and relative humidity of 70%. Observations on dead, moribund and live larvae were recorded 96 h after the release of the larvae. Percent mortality was calculated by combining dead and moribund larvae and comparing the result to the one of the untreated control. The results are shown for the compound of formula (I-III) in Table A.

Spodoptera litura = assay: Diet incorporation method against Spodoptera litura (Example B); settings: single compound, 96 h
Procedure: The diet incorporation method was used, in which semi-synthetic diet was incorporated into the test solution consisting either of the single compound or respective compound combinations, when the temperature was approximately 50° C. in the bioassay containers, then stirred thoroughly for proper mixing and allowed to cool for 30 min. The solidified diet was cut into equal pieces, and then each piece was transferred into one cell of the bio-assay trays. A single starved third instar larva was released into each of these cells of the bio-assay trays and the tray was covered with a lid. The bio-assay trays were kept under laboratory conditions at a temperature of 25° C. and relative humidity of 70%. Observations on dead, moribund and live larvae were recorded 96 h after the release. Percent mortality was calculated by combining dead and moribund larvae and comparing the result with the one of the untreated control. The results are shown for the compound of formula (I-III) in Table B.

Phakopsora pachyrhizi = assay: Preventive glasshouse test against Phakopsora pachyrhizi in soybean (Example H); settings: single compound
Procedure: The single compounds or the respective compound combinations were dissolved in 2% dimethyl sulfoxide/acetone and then mixed with water containing an emulsifier to a calibrated spray volume of 50 ml. The test solutions were poured into spray bottles for further applications.
To test the preventive activity of compounds, healthy young Soybean plants, raised in the greenhouse, were sprayed with the active compound preparation at the stated application rates inside the spray cabinets using hollow cone nozzles. One day after treatment, the plants were inoculated with a suspension containing 2×10^5 Phakopsora pachyrhizi conidia. The inoculated plants were then kept in a greenhouse chamber at a temperature of 22-24° C. and 80-90% relative humidity for disease expression.
A visual assessment of the performance of the single compounds and respective compound combinations was carried out by rating the disease severity (0-100% scale) on treated plants 3, 7, 10 and 15 days after application. Efficacy (% control) of the compounds was calculated by comparing the disease rating in the treatment with the one of the untreated control. The compounds were also assessed for their plant compatibility by recording symptoms like necrosis, chlorosis and stunting. The results have been described for the compound of formula (I-III) in Table H.

Erysiphe cichoracearum = assay: Preventive glasshouse test against Erysiphe cichoracearum in cucumber (Example K); settings: single compound, Conc. 100 ppm
Procedure: The single compounds or the respective compound combinations were dissolved in 2% dimethyl sulfoxide/acetone and then mixed with water containing emulsifier to a calibrated spray volume of 50 mL. The test solutions were poured into spray bottles for further applications.
To test the preventive activity of compounds, healthy young cucumber plants, raised in the greenhouse, were sprayed with the active compound preparation at the stated application rates inside the spray cabinets using hollow cone nozzles. One day after treatment, the plants were inoculated with a conidial suspension containing 2×10^5 Erysiphe cichoracearum inoculum. The inoculated plants were then kept in a greenhouse chamber at a temperature of 22-24° C. and 50-60% relative humidity for disease expression.
A visual assessment of the performance of the compounds and the respective compound combinations was carried out by rating the disease severity (0-100% scale) on treated plants 3, 7, 10 and 15 days after application. Efficacy (% control) of the single compounds or compound combinations was calculated by comparing the disease rating in the treatment with the one of the untreated control. The compounds were also assessed for their plant compatibility by recording symptoms like necrosis, chlorosis and stunting. The results have been described for the compound of formula (I-III) in Table K.

Alternaria solani = assay: Preventive glasshouse test against Alternaria solani in tomato (Example G); settings: single compound
Procedure: The single compounds or respective compound combinations were dissolved in 2% dimethyl sulfoxide/acetone and then mixed with water containing emulsifier to a calibrated spray volume of 50 mL. The test solutions were poured into spray bottles for further applications.
To test the preventive activity, healthy young tomato plants, raised in the greenhouse, were sprayed with the active compound preparation at the stated application rates inside the spray cabinets using hollow cone nozzles. One day after treatment, the plants were inoculated with a spore suspension containing 0.24×10^6 Alternaria solani inoculum and 2% Malt. The inoculated plants were then kept in a greenhouse chamber at a temperature of 22-24° C. and 90-95% relative humidity for disease expression.
A visual assessment of the performance of the single compounds or compound combinations was carried out by rating the disease severity (0-100% scale) on treated plants 3, 7, 10 and 15 days after application. Efficacy (% control) of the single compounds and mixtures was calculated by comparing the disease rating in the treatment with the one of the untreated control. The compounds were also assessed for their plant compatibility by recording symptoms like necrosis, chlorosis and stunting. The results have been described for the compound of formula (I-III) in Table G.

[1] = Spodoptera litura, 100 ppm, read-out: Observed Efficacy (%)
[2] = Spodoptera litura, read-out: Observed Efficacy (%)
[3] = Helicoverpa armigera, 100 ppm, read-out: Observed Efficacy (%)

N#Cc1ccc(CC(=NNC(=O)Nc2ccc(OC(F)(F)F)cc2)c2cccc(C(F)(F)F)c2)cc1 (mixture of isomers) [Metaflumizone]
Observed Efficacy (%) (Plutella xylostella; 0.01 ppm): 25%
Observed Efficacy (%) (Plutella xylostella; 0.1 ppm): 0%

Cc1c(COC(=O)[C@@H]2[C@H](/C=C(\Cl)C(F)(F)F)C2(C)C)cccc1-c1ccccc1 (racemic) [Bifenthrin]
pest or weed control at 1 ppm (Helicoverpa armigera; Helicoverpa armigera, 1 ppm, read-out: Observed Efficacy (%)): 0%
Observed Efficacy (%) (Plutella xylostella; 0.5 ppm): 12.5%
Observed Efficacy (%) (Plutella xylostella; 1 ppm): 25%

C[C@]1(COC(=O)C2CC2)[C@@H]2C[C@H](O)[C@@]3(C)Oc4cc(-c5cccnc5)oc(=O)c4[C@H](O)[C@@H]3[C@@]2(C)CC[C@@H]1OC(=O)C1CC1 [Afidopyropen]
Observed Efficacy (%) (Plutella xylostella; 0.1 ppm): 0%
Observed Efficacy (%) (Spodoptera litura; 50 ppm): 0%
Observed Efficacy (%) (Spodoptera litura; 100 ppm): 0%

CN(C(=O)c1ccccc1)c1cccc(C(=O)Nc2c(Br)cc(C(F)(C(F)(F)F)C(F)(F)F)cc2C(F)(F)F)c1F [Broflanilide]
Observed Efficacy (%) (Helicoverpa armigera; 0.05 ppm): 0%
Observed Efficacy (%) (Helicoverpa armigera; 0.1 ppm): 12.5%
Observed Efficacy (%) (Spodoptera litura; 0.05 ppm): 0%

CN/C(=N\[N+](=O)[O-])NCc1cnc(Cl)s1 [Clothianidin]
pest or weed control at 10 ppm (Helicoverpa armigera; Helicoverpa armigera, 10 ppm, read-out: Observed Efficacy (%)): 12.5%
pest or weed control at 20 ppm (Helicoverpa armigera; Helicoverpa armigera, 20 ppm, read-out: Observed Efficacy (%)): 25%
pest or weed control at 20 ppm (Spodoptera litura; Spodoptera litura, 20 ppm, read-out: Observed Efficacy (%)): 0%

CCN(C(=O)c1cnn(C(C)C(C)C)c1C)c1ccnnc1 (stereo not shown) [Dimpropyridaz]
Observed Efficacy (%) (Plutella xylostella; 0.1 ppm): 12.5%
Observed Efficacy (%) (Spodoptera litura; 100 ppm): 0%

N#Cc1nn(-c2c(Cl)cc(C(F)(F)F)cc2Cl)c(N)c1[S+]([O-])C(F)(F)F (stereo not shown) [Fipronil]
Observed Efficacy (%) (Plutella xylostella; 0.001 ppm): 0%

CCc1nc2cc(C)c(Oc3ccc(OC(F)(F)F)cc3)cc2c(OC(=O)OC)c1C [Flometoquin]
Observed Efficacy (%) (Plutella xylostella; 0.005 ppm): 12.5%

N#Cc1c[nH]cc1-c1cccc2c1OC(F)(F)O2 [Fludioxonil]
pest or weed control at 100 ppm (Spodoptera litura; [1]): 37.5%
pest or weed control at 200 ppm (Spodoptera litura; [2]): 25%
Observed Efficacy (%) (Phakopsora pachyrhizi; 2.0 ppm): 19%
Observed Efficacy (%) (Phakopsora pachyrhizi; 10.0 ppm): 28%

CON=CNC(=O)c1ccc(C2=NOC(c3cc(Cl)cc(Cl)c3)(C(F)(F)F)C2)cc1C (stereo not shown) [Fluxametamid]
Observed Efficacy (%) (Plutella xylostella; 0.05 ppm): 0%
Observed Efficacy (%) (Plutella xylostella; 0.1 ppm): 0%

O=[N+]([O-])NC1=NCCN1Cc1ccc(Cl)nc1 [Imidacloprid]
pest or weed control at 50 ppm (Helicoverpa armigera; Helicoverpa armigera, 50 ppm, read-out: Observed Efficacy (%)): 0%
Observed Efficacy (%) (Plutella xylostella; 0.1 ppm): 0%
pest or weed control at 100 ppm (Spodoptera litura; [1]): 0%

COC(=O)N(C(=O)N1CO[C@@]2(C(=O)OC)Cc3cc(Cl)ccc3C2=N1)c1ccc(OC(F)(F)F)cc1 [Indoxacarb]
Observed Efficacy (%) (Helicoverpa armigera; 0.1 ppm): 0%
Observed Efficacy (%) (Spodoptera litura; 0.1 ppm): 0%

CCN1OCC(NC(=O)c2ccc(C3=NOC(c4cc(Cl)c(F)c(Cl)c4)(C(F)(F)F)C3)cc2C)C1=O (stereo not shown) [Isocycloseram]
Observed Efficacy (%) (Plutella xylostella; 0.1 ppm): 87.5%
Observed Efficacy (%) (Spodoptera litura; 10 ppm): 12.5%

COCC(=O)N(c1c(C)cccc1C)C(C)C(=O)OC (stereo not shown) [Metalaxyl]
Observed Efficacy (%) (Erysiphe cichoracearum): 31%
Observed Efficacy (%) (Alternaria solani; 50 ppm): 22%
Observed Efficacy (%) (Alternaria solani; 100 ppm): 22%
pest or weed control at 200 ppm (Spodoptera litura; [2]): 0%
pest or weed control at 500 ppm (Spodoptera litura; [2]): 0%

CCS(=O)(=O)c1cccnc1-c1nc2cc(S(=O)(=O)C(F)(F)F)ccc2o1 [Oxazosulfyl, 2-[3-(ethanesulfonyl)pyridin-2-yl]-5-[trifluoro(methanesulfonyl)]-1,3-benzoxazole]
pest or weed control at 100 ppm (Helicoverpa armigera; [3]): 12.5%
Observed Efficacy (%) (Plutella xylostella; 0.1 ppm): 0%

CC1=NNC(=O)N(/N=C/c2cccnc2)C1 [Pymetrozine]
Observed Efficacy (%) (Plutella xylostella; 0.01 ppm): 0%
Observed Efficacy (%) (Plutella xylostella; 0.05 ppm): 0%
Observed Efficacy (%) (Plutella xylostella; 1 ppm): 12.5%

CC(COc1ccc(Oc2ccccc2)cc1)Oc1ccccn1 (stereo not shown) [Pyriproxyfen]
Observed Efficacy (%) (Plutella xylostella; 0.05 ppm): 12.5%
Observed Efficacy (%) (Plutella xylostella; 0.1 ppm): 25%
Observed Efficacy (%) (Plutella xylostella; 1 ppm): 12.5%

CN1COCN(Cc2cnc(Cl)s2)/C1=N\[N+](=O)[O-] [Thiamethoxam]
pest or weed control at 100 ppm (Helicoverpa armigera; [3]): 25%
Observed Efficacy (%) (Plutella xylostella; 1 ppm): 12.5%
pest or weed control at 50 ppm (Spodoptera litura; Spodoptera litura, 50 ppm, read-out: Observed Efficacy (%)): 0%
pest or weed control at 100 ppm (Spodoptera litura; [1]): 0%

COC(=O)NC(=S)Nc1ccccc1NC(=S)NC(=O)OC [Thiophanate-methyl]
pest or weed control at 100 ppm (Helicoverpa armigera; [3]): 0%
pest or weed control at 200 ppm (Helicoverpa armigera; Helicoverpa armigera, 200 ppm, read-out: Observed Efficacy (%)): 0%
pest or weed control at 500 ppm (Helicoverpa armigera; Helicoverpa armigera, 500 ppm, read-out: Observed Efficacy (%)): 0%
Observed Efficacy (%) (Alternaria solani; 10 ppm): 36%
Observed Efficacy (%) (Alternaria solani; 50 ppm): 36%
pest or weed control at 100 ppm (Spodoptera litura; [1]): 0%
pest or weed control at 200 ppm (Spodoptera litura; [2]): 0%
pest or weed control at 500 ppm (Spodoptera litura; [2]): 0%

O=c1c(-c2cccc(C(F)(F)F)c2)c([O-])[n+](Cc2cncnc2)c2ccccn12 [Triflumezopyrim]
Observed Efficacy (%) (Helicoverpa armigera; 50 ppm): 12.5%
Observed Efficacy (%) (Helicoverpa armigera; 100 ppm): 0%
Observed Efficacy (%) (Spodoptera litura; 50 ppm): 25%

CCN(C(=O)CCSCCC(F)(F)F)c1cn(-c2cccnc2)nc1Cl [Tyclopyrazoflor]
Observed Efficacy (%) (Plutella xylostella; 0.1 ppm): 0%
Observed Efficacy (%) (Spodoptera litura; 100 ppm): 0%

Abamectin
Observed Efficacy (%) (Plutella xylostella; 0.001 ppm): 12.5%
Observed Efficacy (%) (Plutella xylostella; 0.005 ppm): 25%

Emamectin benzoate
Observed Efficacy (%) (Helicoverpa armigera; 0.1 ppm): 12.5%
Observed Efficacy (%) (Spodoptera litura; 0.05 ppm): 12.5%
Observed Efficacy (%) (Spodoptera litura; 0.1 ppm): 25%

Spinetoram
Observed Efficacy (%) (Helicoverpa armigera; 0.5 ppm): 25%
Observed Efficacy (%) (Plutella xylostella; 0.05 ppm): 62.5%

Spinosad
Observed Efficacy (%) (Helicoverpa armigera; 0.2 ppm): 12.5%
Observed Efficacy (%) (Spodoptera litura; 0.2 ppm): 0%
